Data as given in ChEMBL document CHEMBL5036372, “QuatCy-I2 and MHI-I2 in Photodynamic Therapy” (ACS Med Chem Lett, 2022).

How the values were obtained:
[1] = system: U-87 MG; assay: Dark toxicity against human U-87 MG cells incubated for 48 hrs by Alamar blue assay; type: cell-based, U-87MG ATCC
[2] = Drug localization in lungs of CD-1 mouse at 25 nmol, iv measured after 4 hrs by fluorescence imaging analysis; type: ADME, organism-based, Lung; conditions: in vivo
[3] = Drug localization in kidney of CD-1 mouse at 25 nmol, iv measured after 4 hrs by fluorescence imaging analysis; type: ADME, organism-based; conditions: in vivo
[4] = Clearance in CD-1 mouse at 25 nmol, iv measured upto 480 mins by UV-Vis spectrophotometer method; type: ADME, organism-based; conditions: in vivo
[5] = system: Mus musculus; assay: Antitumor activity against mouse implanted with mouse NIT-1 cells assessed as tumor to background ratio at 35 nmol, iv incubated for 4 hrs by fluorescence imaging analysis; type: functional
[6] = Biodistribution in bone marrow of mouse implanted with mouse NIT-1 cells at 35 nmol, iv incubated for 4 to 8 hrs by fluorescence imaging analysis; type: ADME, organism-based; conditions: in vivo, time 4-8 hrs
[7] = Phototherapeutic index, ratio of IC50 for dark cytotoxicity against human U-87 MG cells to IC50 for light cytotoxicity against human U-87 MG cells preincubated for 6 to 24 hrs followed by light irradiation for 20 min and measured after 24 hrs dark incubation by Alamar blue assay; type: cell-based, U-87MG ATCC; conditions: time 6-24 hrs, read-out: Ratio IC50
[8] = Drug localization in liver of CD-1 mouse at 25 nmol, iv measured after 4 hrs by fluorescence imaging analysis; type: ADME, organism-based; conditions: in vivo
[9] = Terminal half life in CD-1 mouse at 25 nmol, iv measured upto 480 mins by UV-Vis spectrophotometer method; type: ADME, organism-based; conditions: in vivo, read-out: beta t1/2
[10] = Biodistribution in lymph node of mouse implanted with mouse NIT-1 cells at 35 nmol, iv incubated for 4 to 8 hrs by fluorescence imaging analysis; type: ADME, organism-based; conditions: in vivo, time 4-8 hrs
[11] = Half life in CD-1 mouse blood at 25 nmol, iv measured upto 480 mins by UV-Vis spectrophotometer method; type: ADME, organism-based
[12] = Biodistribution in peripheral tissue of mouse implanted with mouse NIT-1 cells at 35 nmol, iv incubated for 4 to 8 hrs by fluorescence imaging analysis; type: ADME, organism-based; conditions: in vivo, time 4-8 hrs
[13] = Drug localization in duodenum of CD-1 mouse at 25 nmol, iv measured after 4 hrs by fluorescence imaging analysis; type: ADME, organism-based; conditions: in vivo

Row | Drug uptake [2] | Drug uptake [3] | clearance [4] | Drug uptake [6] | Drug uptake [8] | half-life [9] | Drug uptake [10] | half-life [11] | Drug uptake [12] | Drug uptake [13] | SMILES | IC50 [1] | Ratio [5] | selectivity ratio at 24 h [7]
1 |  |  |  |  |  |  |  |  |  |  | CC1(C)C(/C=C/C2=C(Cl)C(=C/C=C3/N(CCCCCC(=O)O)c4ccccc4C3(C)C)/C[N+](C)(C)C2)=[N+](CCCCCC(=O)O)c2ccccc21 | > 100 µM |  | 
2 |  |  |  |  |  |  |  |  |  |  | CC1(C)C(/C=C/C2=C(Cl)C(=C/C=C3/N(CCCCCC(=O)O)c4ccccc4C3(C)C)/CCC2)=[N+](CCCCCC(=O)O)c2ccccc21 | 19.2 µM |  | 
3 | Not Active | Active | 5 mL/min/kg | Active | Active | 0.917 h | Active |  |  |  | CC1(C)C(/C=C/C2=C(Cl)C(=C/C=C3/N(CCCCCC(=O)O)c4ccc(I)cc4C3(C)C)/C[N+](C)(C)C2)=[N+](CCCCCC(=O)O)c2ccc(I)cc21 | 62.4 µM | 8.98 | 72.8
4 |  |  | 0.2 mL/min/kg |  | Active |  |  | 1.93 h | Active | Active | CC1(C)C(/C=C/C2=C(Cl)C(=C/C=C3/N(CCCCCC(=O)O)c4ccc(I)cc4C3(C)C)/CCC2)=[N+](CCCCCC(=O)O)c2ccc(I)cc21 | 11.4 µM | 6.5 | 2.56
